Reference: the NIST ThermoML archive (doi:10.1016/j.fluid.2018.08.012)
Where “and” joins values, the source holds several entries; their conditions need not be identical. Identical values can stand only once. Numbers after ± are expanded uncertainties.

Experiment: mn = molality of the nth substance listed, in mol/kg
Conditions: Fluid (supercritical or subcritical phases), Vibrating tube method, m1 = 0.2322

S=C=S [carbon disulfide] + O=C=O
Conditions | mass density
324.09 K, 5020 kPa | 107.03 ± 0.2 kg/m3
324.09 K, 5037.7 kPa | 107.14 ± 0.2 kg/m3
324.09 K, 7541 kPa | 199.79 ± 0.58 kg/m3
324.09 K, 7551.5 kPa | 199.54 ± 0.58 kg/m3
324.09 K, 10053 kPa | 403.53 ± 1.2 kg/m3
324.09 K, 10060 kPa | 402.21 ± 1.2 kg/m3
324.09 K, 12570 kPa | 624.02 ± 1.3 kg/m3
324.09 K, 12604 kPa | 625.07 ± 1.3 kg/m3
324.09 K, 15125 kPa | 707.48 ± 1.1 kg/m3
324.09 K, 15142 kPa | 707.56 ± 1.1 kg/m3
324.09 K, 17653 kPa | 755.16 ± 0.93 kg/m3
324.09 K, 17669 kPa | 755.21 ± 0.93 kg/m3
324.09 K, 20182 kPa | 789.28 ± 0.82 kg/m3
324.09 K, 20197 kPa | 789.34 ± 0.82 kg/m3
324.09 K, 22699 kPa | 815.92 ± 0.75 kg/m3
324.09 K, 22712 kPa | 815.94 ± 0.75 kg/m3
324.09 K, 25212 kPa | 837.95 ± 0.71 kg/m3
324.09 K, 25226 kPa | 837.97 ± 0.71 kg/m3
324.09 K, 27728 kPa | 856.85 ± 0.68 kg/m3
324.09 K, 27741 kPa | 856.86 ± 0.68 kg/m3
324.09 K, 30237 kPa | 873.42 ± 0.67 kg/m3
324.09 K, 30252 kPa | 873.43 ± 0.67 kg/m3
324.09 K, 32734 kPa | 888.17 ± 0.66 kg/m3
324.09 K, 32750 kPa | 888.17 ± 0.66 kg/m3
324.09 K, 35219 kPa | 901.47 ± 0.67 kg/m3
324.09 K, 35227 kPa | 901.44 ± 0.67 kg/m3
349.43 K, 5049.6 kPa | 92.26 ± 0.16 kg/m3
349.43 K, 5059.9 kPa | 92.17 ± 0.16 kg/m3
349.43 K, 7561.3 kPa | 154.46 ± 0.3 kg/m3
349.43 K, 7565.2 kPa | 155.4 ± 0.3 kg/m3
349.43 K, 10072 kPa | 237.91 ± 0.66 kg/m3
349.43 K, 10079 kPa | 236.77 ± 0.66 kg/m3
349.43 K, 12659 kPa | 351.82 ± 1.1 kg/m3
349.43 K, 12682 kPa | 350.77 ± 1.1 kg/m3
349.43 K, 15194 kPa | 474.54 ± 1.3 kg/m3
349.43 K, 15210 kPa | 471.73 ± 1.3 kg/m3
349.43 K, 17724 kPa | 568.76 ± 1.3 kg/m3
349.43 K, 17738 kPa | 565.77 ± 1.3 kg/m3
349.43 K, 20245 kPa | 633.49 ± 1.1 kg/m3
349.43 K, 20260 kPa | 630.9 ± 1.2 kg/m3
349.43 K, 22769 kPa | 680.4 ± 1.1 kg/m3
349.43 K, 22783 kPa | 678.14 ± 1.1 kg/m3
349.43 K, 25280 kPa | 716.41 ± 1 kg/m3
349.43 K, 25300 kPa | 714.54 ± 1 kg/m3
349.43 K, 27790 kPa | 745.77 ± 0.96 kg/m3
349.43 K, 27805 kPa | 744.03 ± 0.96 kg/m3
349.43 K, 30301 kPa | 770.42 ± 0.93 kg/m3
349.43 K, 30313 kPa | 768.82 ± 0.93 kg/m3
349.43 K, 32807 kPa | 791.68 ± 0.9 kg/m3
349.43 K, 32815 kPa | 790.19 ± 0.9 kg/m3
349.43 K, 35294 kPa | 808.86 ± 0.94 kg/m3
349.43 K, 35296 kPa | 810.28 ± 0.96 kg/m3
374.78 K, 5066.1 kPa | 82.47 ± 0.14 kg/m3
374.78 K, 5070.7 kPa | 82.42 ± 0.14 kg/m3
374.78 K, 7581.5 kPa | 133.35 ± 0.24 kg/m3
374.78 K, 7585 kPa | 133.32 ± 0.24 kg/m3
374.78 K, 10086 kPa | 191.97 ± 0.41 kg/m3
374.78 K, 10088 kPa | 191.92 ± 0.41 kg/m3
374.78 K, 15040 kPa | 335.44 ± 0.88 kg/m3
374.78 K, 15062 kPa | 335.78 ± 0.89 kg/m3
374.78 K, 17568 kPa | 413.55 ± 1.1 kg/m3
374.78 K, 17587 kPa | 413.86 ± 1.1 kg/m3
374.78 K, 20094 kPa | 484.4 ± 1.3 kg/m3
374.78 K, 20111 kPa | 484.48 ± 1.3 kg/m3
374.78 K, 22615 kPa | 543.66 ± 1.3 kg/m3
374.78 K, 22634 kPa | 543.72 ± 1.3 kg/m3
374.78 K, 25138 kPa | 592.09 ± 1.2 kg/m3
374.78 K, 25153 kPa | 592 ± 1.2 kg/m3
374.78 K, 27657 kPa | 631.81 ± 1.2 kg/m3
374.78 K, 27672 kPa | 631.68 ± 1.2 kg/m3
374.78 K, 30176 kPa | 665.02 ± 1.2 kg/m3
374.78 K, 30185 kPa | 664.78 ± 1.2 kg/m3
374.78 K, 32689 kPa | 693.03 ± 1.2 kg/m3
374.78 K, 32690 kPa | 693.42 ± 1.2 kg/m3
374.78 K, 35184 kPa | 717.46 ± 1.2 kg/m3
374.78 K, 35192 kPa | 717.92 ± 1.2 kg/m3
400.5 K, 5077 kPa | 75.32 ± 0.12 kg/m3
400.5 K, 5080.3 kPa | 74.8 ± 0.13 kg/m3
400.5 K, 7594.6 kPa | 118.07 ± 0.2 kg/m3 and 118.35 ± 0.2 kg/m3
400.5 K, 10099 kPa | 166.1 ± 0.33 kg/m3
400.5 K, 10100 kPa | 165.54 ± 0.33 kg/m3
400.5 K, 15048 kPa | 272.65 ± 0.65 kg/m3
400.5 K, 15074 kPa | 273.42 ± 0.65 kg/m3
400.5 K, 17570 kPa | 330.78 ± 0.98 kg/m3
400.5 K, 17602 kPa | 331.7 ± 0.99 kg/m3
400.5 K, 20096 kPa | 388.17 ± 1.2 kg/m3
400.5 K, 20129 kPa | 389.15 ± 1.2 kg/m3
400.5 K, 22617 kPa | 441.87 ± 1.4 kg/m3
400.5 K, 22654 kPa | 442.82 ± 1.4 kg/m3
400.5 K, 25139 kPa | 490.19 ± 1.6 kg/m3
400.5 K, 25176 kPa | 491.09 ± 1.6 kg/m3
400.5 K, 27660 kPa | 532.79 ± 1.4 kg/m3
400.5 K, 27688 kPa | 533.55 ± 1.4 kg/m3
400.5 K, 30177 kPa | 569.95 ± 1.4 kg/m3
400.5 K, 30206 kPa | 570.64 ± 1.4 kg/m3
400.5 K, 32686 kPa | 602.4 ± 1.4 kg/m3
400.5 K, 32712 kPa | 602.99 ± 1.4 kg/m3
400.5 K, 35192 kPa | 631.01 ± 1.4 kg/m3
400.5 K, 35205 kPa | 631.44 ± 1.4 kg/m3
